Experiment [1] relates to HCV replicon in Huh7 cells. The experiment is described as follows: HCV replicon cell-based assay. Also noted: species or system HCV strain 1B. The note with it: Hepatitis C virus, Huh-7, 96 h; HCV replicon, Huh7 cells, 4 days; activity ranges; read-out: EC50. The essentials:
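Genotype 1b subgenomic replicon Huh7 cells exposed to compound 4 days at 37° C in 4% FCS, 0.5% DMSO medium. EC50 from TaqMan RT-PCR of HCV RNA, normalized to total RNA by RiboGreen; CC50 from alamar Blue fluorescence after 4 h.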
(In antiviral work, replicon cells carry a viral genome segment that copies itself.)

Experiment [2] has as its target HCV NS3/4A protease complex (Hepatitis C virus genotype 1a, UniProt P27958, C1454S/C1711G). The experiment is described as follows: Recombinant HCV NS3/4A protease complex FRET peptide assay (strain not stated). Type of experiment: biochemical. The note with it: IC50, NS3/4A protease enzyme assay, strain not stated; activity ranges.

SMILES strings stand for the structures. A value given as a limit tells only on which side of the number the result lay.

The values below come from patent US6872805B2 (Bristol-Myers Squibb Company, priority 2000, dated 2005).

Sequence of HCV NS3/4A protease complex (P27958 1027-1711, stated change not applied): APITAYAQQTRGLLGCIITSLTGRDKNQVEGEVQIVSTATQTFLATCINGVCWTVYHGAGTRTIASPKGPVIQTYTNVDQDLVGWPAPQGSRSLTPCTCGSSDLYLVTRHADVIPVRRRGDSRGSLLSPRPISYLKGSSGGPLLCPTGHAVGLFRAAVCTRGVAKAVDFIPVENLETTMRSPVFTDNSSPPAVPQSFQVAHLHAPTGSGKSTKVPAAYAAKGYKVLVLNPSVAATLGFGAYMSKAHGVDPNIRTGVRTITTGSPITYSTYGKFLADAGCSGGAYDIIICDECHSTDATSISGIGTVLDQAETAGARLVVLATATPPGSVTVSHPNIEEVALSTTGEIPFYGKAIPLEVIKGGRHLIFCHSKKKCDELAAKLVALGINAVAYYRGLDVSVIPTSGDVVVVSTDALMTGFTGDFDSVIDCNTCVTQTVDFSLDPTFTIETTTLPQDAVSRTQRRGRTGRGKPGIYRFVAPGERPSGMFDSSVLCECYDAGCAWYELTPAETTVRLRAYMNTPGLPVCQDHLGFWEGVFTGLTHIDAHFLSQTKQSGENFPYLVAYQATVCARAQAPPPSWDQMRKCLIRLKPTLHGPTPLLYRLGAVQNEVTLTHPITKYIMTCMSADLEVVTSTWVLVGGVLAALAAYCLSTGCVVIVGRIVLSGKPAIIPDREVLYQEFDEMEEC
Sequence of HCV NS3/4A protease complex (P27958 1027-1711, stated change not applied): as above

As a reminder, the EC50 is the concentration needed to bring the measured effect to its halfway point. As a reminder, the IC50 is the midpoint of a concentration-inhibition curve. With `C=CC1C[C@]1(NC(=O)[C@@H]1C[C@@H](Oc2cc(-c3ccccc3)nc3cc(OC)ccc23)CN1C(=O)[C@@H](NC(=O)N(CCC(F)(F)F)CC1CC1)C(C)(C)C)C(=O)NS(=O)(=O)C1CC1` (stereo in doubt) [Compound 20, 1-{2-[3-Cyclopropylmethyl-3-(3,3,3-trifluoropropyl)-ureido]-3,3-dimethylbutyryl}-4-(7-methoxy-2-phenyl-quinolin-4-yloxy)-pyrrolidine-2-carboxylic acid (1-cyclopropanesulfonylaminocarbonyl-2-vinyl-cyclopropyl)amide], the EC50 in experiment [1] is under 500 nM. Moreover, in experiment [2], the IC50 was under 50 nM.
Turning to `CCC1C[C@]1(NC(=O)[C@@H]1C[C@@H](Oc2cc(-c3ccccc3)nc3cc(OC)ccc23)CN1C(=O)[C@@H](NC(=O)CC1CC1)C(C)C)C(=O)NS(=O)(=O)C1CC1` (stereo in doubt) [Compound 5, 1-[2-(2-cyclopropylacetylamino)-3-methylbutyryl]-4-(7-methoxy-2-phenylquinolin-4-yloxy)pyrrolidine-2-carboxylic acid (1-cyclopropanesulfonylaminocarbonyl-2-ethylcyclopropyl)amide], in experiment [1], the EC50 was under 50 nM. The IC50 in experiment [2] is under 50 nM.
`C=CCC[C@](C)(NC(=O)[C@@H]1C[C@@H](Oc2cc(-c3ccccc3)nc3cc(OC)ccc23)CN1C(=O)C(NC(=O)OC(C)(C)C)C(C)(C)C)C(=O)NS(=O)(=O)c1ccc(C)cc1` (stereo partly drawn) [Compound 37]: the EC50 in experiment [1] is under 50 nM. Moreover, the IC50 in experiment [2] is under 50 nM.
